Measured values reported in US10918742B2, “Iodine-based particles” (Nanoprobes, Inc., priority 2016, dated 2021).

Experiments:
[1] = mice, acute dose; cited from earlier work
[2] = microCT comparison with commercially available agent (kidney, lung); format: in vivo, mouse
Method: A mouse was injected with a standard iodine contrast agent at an effective dose of 2.5 g iodine/kg.
A mouse was injected with a standard iodine contrast agent at an effective dose of 1.75 g iodine/kg.

For `CC(=O)N(CC(O)CO)c1c(I)c(C(=O)NCC(O)CO)c(I)c(C(=O)NCC(O)CO)c1I` (stereo not drawn) [Iohexol, 5-(N-2,3-Dihydroxypropylacetamido)-2,4,6-triiodo-N,N′-bis(2,3-dihydroxypropyl)isophthalamide], the “intravenous LD50” value [1] is given as 24.2 g iodine/kg, the “microCT of lung region” value ([2]; 30 minutes after injection, 1.75 g iodine/kg) is given as “no clear visualization of any vasculature” and the “microCT of kidney region” value ([2]; two minutes after injection, Example 1 at 1.75 g iodine/kg, standard agent at 2.5 g iodine/kg) is given as “the iodine has rapidly entered the kidneys and is being quickly removed from the blood”.
